Where a name gives a salt, the structure may show the parent alone.
Target: T1, NO-Synthase (iNOS) (Mus musculus, UniProt P29477)
T1 construct: Während der Stimulation über 4 Stunden wird die Neusynthese des NO-produzierenden Enzyms NO-Synthase (iNOS) induziert; endogenous in cells; host or cells: RAW 264.7 mouse macrophages stimulated with LPS and γ-interferon
Experiment: NO measurement by oxyhaemoglobin on LPS/γ-interferon-stimulated macrophages (inhibition of NO release)
Assay type: cell-based, Maus
Details: Mäusemakrophagen RAW 264.7, stimulated 4 h with 140 ng LPS/ml + 5 U γIFN/ml; 120 min incubation with test substance; Extinktionsdifferenz 576-592 nm vs. stimulation control
Description: Die Hemmung der NO-Freisetzung durch die Verbindungen der allgemeinen Formel I kann auch durch NO-Messung mittels Oxyhämoglobin auf Makrophagen wie folgt bestimmt werden: Mäusemakrophagen (MM) des Stammes RAW 264.7 werden in Petrischalen (10 cm Durchmesser) angezüchtet. Als Nährmedium wird DMEM (Fa. Sigma Nr. D 5405), konditioniert mit 4 mM l-Glutamin, 3,5 g D-Glukose/l, 50 U/50 µg/ml Pen/Strep und 10 % FKS, eingesetzt unter 5 % CO2, 95 % Luftfeuchtigkeit, 37°C. Die subkonfluenten Zellen werden mit dem Zellschaber abgekratzt, in Medium aufgenommen, die Zellzahl bestimmt (Zählung in Trypanblaulösung 0,2 %) und in 24-Napfplatten (1 x 10^6 Zellen/ml, 1 ml/Napf) ausgesät.
Ca. 18 Stunden nach Aussaat werden die gut adherierten Mausmakrophagen mit LPS (Lipopolysaccharid von E. coli Serotyp 0111:B4, Fa. Sigma Nr. L 2630) und γ-Interferon (γIFN, Maus rekombinant, Firma Boehringer Mannheim Nr. 1276905) stimuliert. Dazu wird das Kulturmedium von den Zellen abgesaugt und 1 ml/Napf (24-Napfplatte) Inkubationsmedium (MEM ohne Phenolrot (Biochrom F0385)), konditioniert mit 4mM Glutamin, 3,5 g Glukose/l, 3,7 g NaHCO3/l, 110 mg Natriumpyruvat/l, 50 U/50 µg/ml Pen/Strep und 5 % FKS, aufgegeben. Pro ml Inkubationsmedium werden 1 µl LPS und 1 µl γIFN pipettiert.
Daraus ergeben sich folgende Konzentrationen der Stimulatoren: 140 ng LPS/ml + 5 U γIFN/ml [formula] […]

IC50: 1300 nM
Compound: NC1=NCCCCS1 [Beispiel 1, 2-Amino-4,5,6,7-tetrahydro-1,3-thiazepin-Hydrochlorid]

Source: patent EP0718294A1, “2-Amino-1,3-thiazepines and their use as inhibitors of the nitrogene oxide synthase” (HOECHST AKTIENGESELLSCHAFT, priority 1994, dated 1996)
